From patent publication US20130165368A1, “ANTIMICROBIAL COMPOUNDS” (priority 2010, published 2013)
≈ marks a conversion by molar mass, not a printed value. Where two headings read alike, the source gives them in different places. One block for each compound: values may come before it.

Tests used:
Type in all cases: cell-based
Staphylococcus aureus = experiment: MIC agar dilution, micro-organism 13 (6571); conditions: Staphylococcus aureus 6571
Description: (§1) Throughout the period of testing the microbial strains were subcultured and incubated for 18-20 hours at 37° C. on a weekly basis. Horse blood agar plates were used to sustain the micro-organisms both prior to and throughout testing. The alkoxylated alkanols listed in Table II below were obtained (these are obtainable from Sigma-Aldrich Company Ltd, Dorset, England), each having a GC purity of at least 97%.
(§2) Molar equivalent concentrations were used to allow comparison between compounds of differing molecular mass. Due to weighing difficulties, any compound in solid form was melted in a water bath prior to dilution. To make ten-times strength concentrations, which takes into account agar dilution, 0.0352 mmol of each compound was weighed into plastic universal bottles and 4 mL of sterile distilled water (SDW) was added. To produce a homogenous emulsion the universals were vortexed; once achieved the emulsions were serial diluted by adding 2 mL to 2 mL of SDW.
(§3) Myristyl alcohol and lauryl alcohol were re-weighed and dissolved in 25 μL of the polar solvent 1-methyl-2-pyrrolidone (M6762; Sigma-Aldrich) in sterile glass universals due to an inability to achieve an even suspension. To maintain an even emulsion in the presence of SDW 37.5 μL of the non-ionic detergent Tween 20 (P1379, Sigma-Aldrich) was also added. 3.9375 mL of SDW was added to these, to create a 4 mL volume; they were vortexed and diluted as before.
(§4) For every 100 mL of Isosensitest agar (IST) (CM0471; Oxoid, Basingstoke, England), 3.1 g of the IST powder was added to 100 mL SDW (as per manufacturer's instructions) and sterilised for 15 minutes at 121° C. Once sterilised, the molten agar was cooled to 50° C. in a water-bath. Subsequently 4.8 g of CCEY powder (BC2160; Bioconnections, Wetherby, England), also known as Brazier's medium, was added to 100 mL SDW for every 100 mL of agar needed. This was then sterilised for 15 minutes at 121° C. Once sterilised the molten agar was cooled to 50° C. in a water-bath and 4 mL of egg-yolk emulsion (S2073; TCS Biosciences Ltd, Buckingham, United Kingdom) and 1 mL of lysed defibrinated horse blood (HB035; TCS Biosciences Ltd, Buckingham, United Kingdom) were also added for every 100 mL needed. Horse blood lysis is achieved by dilution to half concentration with SDW; when fully lysed the mixture will turn dark red in colour.
(§5) 18 mL agar was added to each universal and then poured into sterile Petri dishes. This step creates a 1/10 dilution resulting in agar plates of the required strength. Control plates for each set of strains were created by adding 18 mL of agar to 2 mL of SDW.
(§6) Suspensions of each bacterial species were prepared with a density equal to that of a 0.5 McFarland standard using a densitometer. All suspensions were made using sterile distilled water and fresh 18-20 hour cultures. As a 0.5 McFarland standard contains 1.5×10^8 CFU/mL and the multipoint inoculators applies 1 μL spots of liquid, each bacterial suspension was diluted 1/15 (20 μL suspension to 280 μL sterile distilled water).
(§7) Bacterial suspensions were prepared from fresh 18-24 hour cultures as previously described. 1 μL of each strain was inoculated onto all 100 agar plates containing a different chemical concentration and the 2 control plates. This was done using a multipoint inoculator which inoculates 20 strains per plate. All plates were incubated for 22 hours at 37° C. in aerobic conditions.
(§8) Each plate was examined for bacterial growth after 22 and 48 hours, with each being incubated in between examinations. A positive result was recorded as growth of ≧10 colonies. A negative result was recorded as growth of <10 colonies as this is equivalent to 99.9% inhibition. The lowest concentration of chemical that inhibited growth was recorded as the MIC. The results are recorded in Table IV below, where the numbers are quoted in mmol/L. […]

Enterococcus faecium = experiment: MIC agar dilution, micro-organism 16 (7171); conditions: Enterococcus faecium 7171
Description: as §1, §2, §3, §4, §5, §6, §7, §8

Enterobacter cloacae = experiment: MIC agar dilution, micro-organism 4 (11936); conditions: Enterobacter cloacae 11936
Description: as §1, §2, §3, §4, §5, §6, §7
(§9) Each plate was examined for bacterial growth after 22 and 48 hours, with each being incubated in between examinations. A positive result was recorded as growth of ≧10 colonies. A negative result was recorded as growth of <10 colonies as this is equivalent to 99.9% inhibition. The lowest concentration of chemical that inhibited growth was recorded as the MIC. The results are recorded in Table IV below, where the numbers are quoted in mmol/L.
(§10) Further experiments have also been conducted to determine the MIC of a number of other compositions as follows. […]

Enterococcus faecalis = experiment: MIC agar dilution, micro-organism 17 (775); conditions: Enterococcus faecalis 775
Description: as §1, §2, §3, §4, §5, §6, §7, §8

Klebsiella pneumoniae = experiment: MIC agar dilution, micro-organism 2 (9528); conditions: Klebsiella pneumoniae 9528
Description: as §1, §2, §3, §4, §5, §6, §7, §9, §10

Candida albicans = experiment: MIC agar dilution, micro-organism 19 (90028); conditions: Candida albicans 90028
Description: as §1, §2, §3, §4, §5, §6, §7, §8

Steptococcus pyogenes = experiment: MIC agar dilution, micro-organism 11 (8306); conditions: Steptococcus pyogenes 8306
Description: as §1, §2, §3, §4, §5, §6, §7, §8

[1] = system: Staphylococcus epidermidis; experiment: MIC agar dilution, micro-organism 14 (11047); conditions: Staphylococcus epidermidis 11047
Description: as §1, §2, §3, §4, §5, §6, §7, §8

Providencia rettgeri = experiment: MIC agar dilution, micro-organism 3 (7475); conditions: Providencia rettgeri 7475
Description: as §1, §2, §3, §4, §5, §6, §7, §8

Acinetobacter baumannii = experiment: MIC agar dilution, micro-organism 10 (19606); conditions: Acinetobacter baumannii 19606
Description: as §1, §2, §3, §4, §5, §6, §7, §9, §10

Salmonella typhimurium = experiment: MIC agar dilution, micro-organism 6 (74); conditions: Salmonella typhimurium 74
Description: as §1, §2, §3, §4, §5, §6, §7, §9, §10

[2] = system: Staphylococcus aureus (MRSA); experiment: MIC agar dilution, micro-organism 12 (11939); conditions: Staphylococcus aureus (MRSA) 11939
Description: as §1, §2, §3, §4, §5, §6, §7, §8

Bacillus subtilis = experiment: MIC agar dilution, micro-organism 18 (9372); conditions: Bacillus subtilis 9372
Description: as §1, §2, §3, §4, §5, §6, §7, §8

Yersinia enterocolitica = experiment: MIC agar dilution, micro-organism 8 (11176); conditions: Yersinia enterocolitica 11176
Description: as §1, §2, §3, §4, §5, §6, §7, §9, §10

Candida glabrata = experiment: MIC agar dilution, micro-organism 20 (3943); conditions: Candida glabrata 3943
Description: as §1, §2, §3, §4, §5, §6, §7, §8

Escherichia coli = experiment: MIC agar dilution, micro-organism 1 (10418); conditions: Escherichia coli 10418
Description: as §1, §2, §3, §4, §5, §6, §7, §8

Listeria monocytogenes = experiment: MIC agar dilution, micro-organism 15 (11994); conditions: Listeria monocytogenes 11994
Description: as §1, §2, §3, §4, §5, §6, §7, §8

Serratia marcescens = experiment: MIC agar dilution, micro-organism 5 (10211); conditions: Serratia marcescens 10211
Description: as §1, §2, §3, §4, §5, §6, §7, §9, §10

Pseudomonas aeruginosa = experiment: MIC agar dilution, micro-organism 7 (10662); conditions: Pseudomonas aeruginosa 10662
Description: as §1, §2, §3, §4, §5, §6, §7, §9, §10

Burkholderia cepacia = experiment: MIC agar dilution, micro-organism 9 (1222); conditions: Burkholderia cepacia 1222
Description: as §1, §2, §3, §4, §5, §6, §7, §9, §10

[3] = Staphylococcus aureus, 48 h, 48 hrs, read-out: MIC
[4] = Salmonella enterica, 48 hrs, read-out: MIC
[5] = Staphylococcus aureus, MRSA, 48 h, 48 hrs, read-out: MIC
[6] = Nakaseomyces glabratus, 48 h, 48 hrs, read-out: MIC

MIC (Staphylococcus aureus; 22 hrs): >880 µM | MIC (Staphylococcus aureus; 48 hrs): >880 µM | MIC (Enterococcus faecium; 22 hrs): >880 µM | MIC (Enterococcus faecium; 48 hrs): >880 µM | MIC (Enterobacter cloacae; 22 hrs): >880 µM | MIC (Enterobacter cloacae; 48 hrs): >880 µM | MIC (Enterococcus faecalis; 22 hrs): >880 µM | MIC (Enterococcus faecalis; 48 hrs): >880 µM | MIC (Klebsiella pneumoniae; 22 hrs): >880 µM | MIC (Klebsiella pneumoniae; 48 hrs): >880 µM | MIC (Candida albicans; 22 hrs): >880 µM | MIC (Candida albicans; 48 hrs): >880 µM | MIC (Steptococcus pyogenes; 22 hrs): >880 µM | MIC (Steptococcus pyogenes; 48 hrs): >880 µM | MIC ([1]; 22 hrs): >880 µM | MIC ([1]; 48 hrs): >880 µM | MIC (Providencia rettgeri; 22 hrs): >880 µM | MIC (Providencia rettgeri; 48 hrs): >880 µM | MIC (Acinetobacter baumannii; 22 hrs): >880 µM | MIC (Acinetobacter baumannii; 48 hrs): >880 µM | MIC (Salmonella typhimurium; 22 hrs): >880 µM | MIC (Salmonella typhimurium; 48 hrs): >880 µM | MIC ([2]; 22 hrs): >880 µM | MIC ([2]; 48 hrs): >880 µM | MIC (Bacillus subtilis; 22 hrs): >880 µM | MIC (Bacillus subtilis; 48 hrs): >880 µM | MIC (Yersinia enterocolitica; 22 hrs): >880 µM | MIC (Yersinia enterocolitica; 48 hrs): >880 µM | MIC (Candida glabrata; 22 hrs): 880 µM (≈ 252 µg/mL) | MIC (Candida glabrata; 48 hrs): 880 µM (≈ 252 µg/mL) | MIC (Escherichia coli; 22 hrs): >880 µM | MIC (Escherichia coli; 48 hrs): >880 µM | MIC (Listeria monocytogenes; 22 hrs): >880 µM | MIC (Listeria monocytogenes; 48 hrs): >880 µM | MIC (Serratia marcescens; 22 hrs): >880 µM | MIC (Serratia marcescens; 48 hrs): >880 µM | MIC (Pseudomonas aeruginosa; 22 hrs): >880 µM | MIC (Pseudomonas aeruginosa; 48 hrs): >880 µM | MIC (Burkholderia cepacia; 22 hrs): >880 µM | MIC (Burkholderia cepacia; 48 hrs): >880 µM
SMILES: CCCCCCCCCCCCCCCCOCCO [C16E1, ceteth-1]

MIC (Staphylococcus aureus; [3]): > 880 µM | MIC (Enterococcus faecium; 48 hrs, read-out: MIC): > 880 µM | MIC (Enterobacter cloacae; 48 hrs, read-out: MIC): > 880 µM | MIC (Enterococcus faecalis; 48 hrs, read-out: MIC): > 880 µM | MIC (Klebsiella pneumoniae; 48 hrs, read-out: MIC): > 880 µM | MIC (Candida albicans; 48 hrs, read-out: MIC): > 880 µM | MIC (Steptococcus pyogenes; 48 h, 48 hrs, read-out: MIC): > 880 µM | MIC ([1]; 48 hrs, read-out: MIC): > 880 µM | MIC (Providencia rettgeri; 48 hrs, read-out: MIC): > 880 µM | MIC (Acinetobacter baumannii; 48 hrs, read-out: MIC): > 880 µM | MIC (Salmonella typhimurium; [4]): > 880 µM | MIC [2, 5]: > 880 µM | MIC (Bacillus subtilis; 48 hrs, read-out: MIC): > 880 µM | MIC (Yersinia enterocolitica; 48 hrs, read-out: MIC): > 880 µM | MIC (Candida glabrata; [6]): > 880 µM | MIC (Escherichia coli; 48 hrs, read-out: MIC): > 880 µM | MIC (Listeria monocytogenes; 48 hrs, read-out: MIC): > 880 µM | MIC (Serratia marcescens; 48 hrs, read-out: MIC): > 880 µM | MIC (Pseudomonas aeruginosa; 48 hrs, read-out: MIC): > 880 µM | MIC (Burkholderia cepacia; 48 hrs, read-out: MIC): > 880 µM
SMILES: OCCCCCCCCCCCCO [D, 1,12-dodecanediol, reference compound]

MIC (Staphylococcus aureus; [3]): > 880 µM | MIC (Enterococcus faecium; 48 hrs, read-out: MIC): > 880 µM | MIC (Enterobacter cloacae; 48 hrs, read-out: MIC): > 880 µM | MIC (Enterococcus faecalis; 48 hrs, read-out: MIC): > 880 µM | MIC (Klebsiella pneumoniae; 48 hrs, read-out: MIC): 880 µM (≈ 333 µg/mL) | MIC (Candida albicans; 48 hrs, read-out: MIC): > 880 µM | MIC (Steptococcus pyogenes; 48 h, 48 hrs, read-out: MIC): 880 µM (≈ 333 µg/mL) | MIC ([1]; 48 hrs, read-out: MIC): > 880 µM | MIC (Providencia rettgeri; 48 hrs, read-out: MIC): > 880 µM | MIC (Acinetobacter baumannii; 48 hrs, read-out: MIC): > 880 µM | MIC (Salmonella typhimurium; [4]): > 880 µM | MIC [2, 5]: > 880 µM | MIC (Bacillus subtilis; 48 hrs, read-out: MIC): > 880 µM | MIC (Yersinia enterocolitica; 48 hrs, read-out: MIC): > 880 µM | MIC (Candida glabrata; [6]): > 880 µM | MIC (Escherichia coli; 48 hrs, read-out: MIC): > 880 µM | MIC (Listeria monocytogenes; 48 hrs, read-out: MIC): > 880 µM | MIC (Serratia marcescens; 48 hrs, read-out: MIC): > 880 µM | MIC (Pseudomonas aeruginosa; 48 hrs, read-out: MIC): > 880 µM | MIC (Burkholderia cepacia; 48 hrs, read-out: MIC): > 880 µM
SMILES: OCCOCCOCCCCCCCCCCCCOCCOCCO [DEG2, 3,6,19,22-tetraoxatetracosane-1,24-diol]
